From publication PMC12412615, “Tailored SirReal-type inhibitors enhance SIRT2 inhibition through ligand stabilization and disruption of NAD^+ co-factor binding” (RSC Medicinal Chemistry, 2025)

Assays:
human SIRT1 = molecular target: T1, human SIRT1 (Homo sapiens, UniProt Q96EB6); experiment: Fluorescence-based sirtuin subtype selectivity assay, SIRT1, single dose 50 μM; format: biochemical; settings: 50 μM compound; mean, n = 2
T1 construct: purchased Reaction Biology Corporation (Malvern, USA), contract assay
T1 sequence (Q96EB6 1-747): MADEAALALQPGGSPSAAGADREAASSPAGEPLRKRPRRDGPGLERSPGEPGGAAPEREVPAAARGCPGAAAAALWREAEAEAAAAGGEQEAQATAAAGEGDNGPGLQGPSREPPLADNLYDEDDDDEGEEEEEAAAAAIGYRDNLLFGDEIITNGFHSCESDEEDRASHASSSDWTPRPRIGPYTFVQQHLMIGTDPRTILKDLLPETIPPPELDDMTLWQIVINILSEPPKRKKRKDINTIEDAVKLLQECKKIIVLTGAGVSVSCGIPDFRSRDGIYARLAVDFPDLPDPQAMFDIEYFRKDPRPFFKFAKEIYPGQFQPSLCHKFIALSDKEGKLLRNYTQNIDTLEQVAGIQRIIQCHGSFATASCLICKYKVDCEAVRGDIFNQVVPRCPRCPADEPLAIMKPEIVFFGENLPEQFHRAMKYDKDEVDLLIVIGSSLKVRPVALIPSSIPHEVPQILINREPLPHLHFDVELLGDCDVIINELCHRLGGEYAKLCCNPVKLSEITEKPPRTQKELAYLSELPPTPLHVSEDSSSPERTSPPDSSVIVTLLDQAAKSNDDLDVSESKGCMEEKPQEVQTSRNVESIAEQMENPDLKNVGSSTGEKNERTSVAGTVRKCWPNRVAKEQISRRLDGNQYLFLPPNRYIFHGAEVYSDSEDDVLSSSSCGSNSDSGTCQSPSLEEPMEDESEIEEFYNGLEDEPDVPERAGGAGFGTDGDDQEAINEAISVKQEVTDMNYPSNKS
Procedure: (§1) IC50 values against SIRT2 are given as mean with standard deviations (n = 3). Inhibition percentages at 50 μM for SIRT1, 3 and 5 are given as mean without standard deviations (n = 2)
(§2) The determination of subtype selectivity against SIRT1, 3 and 5 was performed by measuring the residual enzyme activity after treatment with the corresponding inhibitor at a fixed concentration of 50 μM and subsequent calculation of the percentage inhibition.
(§3) The determination of inhibitory activity on the corresponding sirtuin enzymes was carried out based on a fluorescence-based assay commissioned by Reaction Biology Corporation (Malvern, USA) following an internal experimental protocol. Test substances were prepared in DMSO, delivered into the respective enzyme mixture (prepared with reaction buffer: Tris-HCl, pH = 8) and incubated for 10 minutes at 30 °C. Subsequently the substrate mixture (NAD^+ and a 7-amino-4-methylcoumarin-based fluorogenic peptide substrate) was added to initiate the deacetylation reaction. After 2 hours incubation at 30 °C, 2 mM nicotinamide (universal sirtuin inhibitor, to stop the reaction) and protease-based developer (to generate fluorescence by the cleavage of 7-amino-4-methylcoumarin) was added. At 30 °C 1 hour later, the respective fluorescence was measured (extinction/emission = 360 nm/460 nm). The inhibitory effect of the test compounds is indirectly proportional to the amount of converted fluorescent substrate standardized as 100% activity of the control without inhibitor. The test substances were tested in 10-dose IC50 triplicate mode, with 3-fold serial dilution starting at 50 μM final reaction concentration and if necessary, starting at 100 μM. For each serially diluted replicate of the triplicate, an IC50 value was determined by sigmoidal curve fitting, resulting in three IC50 values, from which the mean and corresponding standard deviation were subsequently calculated. Data processing was performed based on Prism 8.0.2 software (GraphPad Software, Boston, USA). Subtype selectivity on SIRT1, SIRT3 and SIRT5 was evaluated in a single dose duplicate mode at 50 μM final test compound concentration according to previous outlined internal protocol of Reaction Biology Corporation by determining the enzyme activity of the respective sirtuins in % (no inhibitor control as 100% activity).

SIRT2 [1] = molecular target: T2, SIRT2 (Homo sapiens, UniProt Q8IXJ6); experiment: Fluorescence-based SIRT2 deacetylation inhibition assay (Reaction Biology Corporation); format: biochemical; parameters: purchased Reaction Biology Corporation (Malvern, USA), contract assay
T2 sequence (Q8IXJ6 1-389): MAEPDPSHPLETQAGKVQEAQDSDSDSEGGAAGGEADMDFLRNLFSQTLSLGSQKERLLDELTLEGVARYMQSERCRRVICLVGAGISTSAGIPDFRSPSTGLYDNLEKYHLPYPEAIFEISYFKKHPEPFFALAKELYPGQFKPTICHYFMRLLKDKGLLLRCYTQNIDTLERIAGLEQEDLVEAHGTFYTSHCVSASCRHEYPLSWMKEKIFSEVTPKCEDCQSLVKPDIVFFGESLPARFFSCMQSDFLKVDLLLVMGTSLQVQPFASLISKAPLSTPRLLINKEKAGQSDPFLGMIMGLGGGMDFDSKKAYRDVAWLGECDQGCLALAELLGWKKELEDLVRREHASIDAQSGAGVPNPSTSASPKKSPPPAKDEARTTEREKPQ
Procedure: The determination of SIRT2 inhibitory activity was performed by Reaction Biology Corporation (Malvern, USA) with a fluorescence-based assay utilizing the fluorogenic peptide of p53 residues 379–382 (RHKK(Ac)-Fl). […]. […] […]. On the contrary, we observed a significant increase in potency by the introduction of halogens at the R^2 position (compounds 29–31), highlighting the importance of the position of the functional group modifications. […]. […] Additional factors such as the atomic radius and thus steric requirements of these halogens may also play a significant role in the increase in potency, where the smaller chlorine atom may experience less steric effects upon binding at the active site compared to the larger bromine and iodine atoms. […]. […] IC50 values against SIRT2 are given as mean with standard deviations (n = 3). Inhibition percentages at 50 μM for SIRT1, 3 and 5 are given as mean without standard deviations (n = 2)
as §3

human SIRT3 = molecular target: T3, human SIRT3 (Homo sapiens, UniProt Q9NTG7); experiment: Fluorescence-based sirtuin subtype selectivity assay, SIRT3, single dose 50 μM; format: biochemical; settings: 50 μM compound; mean, n = 2
T3 construct: purchased Reaction Biology Corporation (Malvern, USA), contract assay
T3 sequence (Q9NTG7 1-399): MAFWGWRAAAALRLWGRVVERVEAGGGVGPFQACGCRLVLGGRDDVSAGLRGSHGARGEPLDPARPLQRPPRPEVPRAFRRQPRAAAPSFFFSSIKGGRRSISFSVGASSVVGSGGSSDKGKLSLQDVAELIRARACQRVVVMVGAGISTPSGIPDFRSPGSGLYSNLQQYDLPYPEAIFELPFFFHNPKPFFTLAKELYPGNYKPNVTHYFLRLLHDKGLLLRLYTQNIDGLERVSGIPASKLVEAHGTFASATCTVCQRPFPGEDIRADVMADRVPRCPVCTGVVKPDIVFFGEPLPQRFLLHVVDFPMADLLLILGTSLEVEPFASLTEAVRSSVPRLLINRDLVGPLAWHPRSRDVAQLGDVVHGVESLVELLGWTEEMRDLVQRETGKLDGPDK
Procedure: as §1, §2, §3

SIRT2 [2] = molecular target: T2, SIRT2; experiment: Fluorescence thermal shift assay of SIRT2
Procedure: The thermal stability of SIRT2 was determined in the presence of 10 μM and 30 μM inhibitor and in the presence and absence of 2.5 mM co-factor NAD^+.
All melting temperature shifts measured were referenced to the melting temperature of SIRT2 without inhibitor, also in the presence and absence of the co-factor.
Fluorescence thermal shift assays were performed in white 96-well plates (Hard-Shell PCR Plates, BioRad, USA) with a total volume of 20 μL per well and a final DMSO concentration of 5% (v/v), following a published protocol.[19,21] […] The compounds were prepared as 10 mM stock solutions in DMSO and diluted in the assay such that a final DMSO concentration of 5% (v/v) was achieved. If necessary, NAD^+ was added to a final concentration of 2.5 mM. […] Melting temperatures were determined using GraphPad Prism, following a published procedure.[52]

Compound: Cc1cc(C)nc(SCC(=O)Nc2cccc(COc3ccc(NC(=O)c4cnn(C)c4)c(Cl)c3)c2)n1 [Compound 29, N-(2-Chloro-4-((3-(2-((4,6-dimethylpyrimidin-2-yl)thio)acetamido)benzyl)oxy)phenyl)-1-methyl-1H-pyrazole-4-carboxamide]
- inhibition at 50 µM (human SIRT1): 12%
- Fold increase in SIRT2 potency compared to lead structure (SIRT2 [1]; 29 vs 24a, 46 vs SirReal2): 3 fold
- IC50 (SIRT2 [1]; fluorogenic peptide of p53 residues 379–382 (RHKK(Ac)-Fl), mean with standard deviation, n = 3): 26 ± 2 nM
- inhibition at 50 µM (human SIRT3): 26%
- NAD+ dependency of inhibitor-induced SIRT2 melting temperature increase (SIRT2 [2]; presence and absence of 2.5 mM NAD+): increases the melting temperature of SIRT2 independently of NAD^+
- ΔTm at 30 µM (SIRT2 [2]; read-out: ΔT, increase in the melting temperature of SIRT2): 6.5 °C
